Assays:
[1] = molecular target: T1, Retinoblastoma-1 (RB) pocket domain (Homo sapiens, UniProt P06400); test: Surface plasmon resonance binding to RB pocket domain; details: SPR, RB pocket domain on sensor chip; sequence-scrambled peptides as negative controls
T1 construct: Recombinant, purified RB pocket domain was coupled to the surface of the sensor chip; purchased LDBiopharma HTF-1035
T1 sequence (P06400 373-771 limits assumed): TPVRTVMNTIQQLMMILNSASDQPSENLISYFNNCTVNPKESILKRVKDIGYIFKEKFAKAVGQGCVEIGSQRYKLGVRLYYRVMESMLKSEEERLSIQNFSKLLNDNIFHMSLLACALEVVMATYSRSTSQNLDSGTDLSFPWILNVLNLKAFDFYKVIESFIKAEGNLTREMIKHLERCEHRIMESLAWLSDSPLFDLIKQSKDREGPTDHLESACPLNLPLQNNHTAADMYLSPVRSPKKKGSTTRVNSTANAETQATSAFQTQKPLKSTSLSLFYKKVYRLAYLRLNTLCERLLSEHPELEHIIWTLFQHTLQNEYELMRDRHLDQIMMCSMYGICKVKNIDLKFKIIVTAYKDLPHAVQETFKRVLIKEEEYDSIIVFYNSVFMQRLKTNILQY
Source text: Since the proliferation of T. parva-infected host cells is thought to be critical for the pathogenesis of infection, we investigated whether synthesized peptides, each 9 to 19 amino acids long and containing these 15 T. parva motifs, could bind to RB (Supplementary Table 1). Surface plasmon resonance (SPR) was used to screen these peptides for specific RB1 pocket domain-binding activity. Recombinant, purified RB pocket domain was coupled to the surface of the sensor chip, and purified peptides were introduced at various concentrations to quantify kinetics if response curves indicated a detectable protein-protein interaction. Sequence-scrambled peptides were used as negative controls to exclude false-positive signals.
Immobilization of human RB1 protein to CM5 chip
Surface preparation. […]
(§1) Kinetics analysis of binding. […] The analytes (60 µl each, 0–25 µM in HBS-EP buffer with 0.05% P20) were injected into flow cell and the association of analyte and ligand were recorded respectively by surface plasmon resonance (SPR) with a Biacore T200 (Biacore, Inc., New Jersey). […]
(§2) Data analysis. Sensorgrams of the interaction generated by the instrument were analyzed using the software BIAeval 3.2 (Biacore Inc., New Jersey). […]

RB pocket domain / E2F-1 = test: SPR competition of TpGcpE with E2F-1 for the RB pocket domain; format: binding, human; details: TpGcpE bound to saturation, then E2F-1 added
Source text: In order to map the site of the interaction of the LXCXE motif with the RB pocket domain, we used SPR to test the ability of full-length TpGcpE protein to compete with two proteins that have known, well-characterized interactions with the RB pocket domain, E2F1 and HDAC1. The RB pocket domain was coupled to the surface of the sensor chip, and purified, recombinant, full-length TpGcpE was introduced into the flow channel to bind the RB pocket domain to saturation; then either purified, recombinant E2F-1 or HDAC1 was added to the channel and the response curve recorded to determine if they competed withTpGcpE binding.
(a) A kinetic surface plasmon resonance binding curve (sensorgram) of full-length HDAC1 to the RB pocket domain is shown. (b) Kinetic binding curve of full-length HDAC1 in competition with full-length TpMuguga02_00667 (TpGcpE). (c) A sensorgram of full-length E2F1 to the RB pocket domain is shown. […]
as §1, §2

BL20/TBL20 cells = format: cell-based, bovine; details: penetrating peptides, 24 h and 48 h; data not shown
Description: Since the LXCXE peptide can induce E2F activity, we investigated whether it could, on its own, increase bovine leukocyte proliferation. To extend our observations to T. annulata-infected leukocytes, we incubated T. annulata-infected B cells with WT or mutated LXNXE peptides and counted cell numbers at 24 h and 48 h.
The amino acid sequence of RB-1 based on the parasite sequence ([…]) was synthesized. Cysteine in wild type RB1 was replaced by an Asparagine (N; in bold […]). The penetrating peptide to facilitate cell entry is underlined. 3 different concentrations of peptides were used for 2 h to determine the minimum effective concentration (1 μM) with minimum toxic effect, which was used to perform each experiment as indicated.

[2] = test system: T. annulata-infected TBL20 cells; test: Cell proliferation, T. annulata-infected B cells (TBL20), hemacytometer count; format: cell-based, bovine
Description: (a) TpMD409B.2 cells were transfected with E2F-luc (WT = wild-type E2F binding construct), or mutated E2F-luc constructs (labeled ‘mutated’) together with a CMV-lacZ plasmid to normalize for transfection efficiency. Luciferase and β-galactosidase activities were measured 24 hrs after transfection. E2F-luc relative luciferase activity normalized to mE2F-luc. Shown is the average of 3 independent experiments with standard deviation. BL20 or TBL20 cells were treated with (b) 1μM of penetrating peptides ([…]-K(FITC)) containing the TpGcpE LXCXE motif, or an LXNXE control ([…]-K(FITC)) or (c) E2F inhibitor or DMSO control, and then counted by hemacytometer after the indicated timepoints. Shown is the average of 3 independent experiments with standard deviation. Then, either (d) virulent Ode T. annulata-transformed macrophages, or (e) BL20/TBL20 T. annulata-transformed cells were transfected with E2F-luc plasmid (or mutated E2F-luc as in (c)) and incubated for 24 hrs at 37 °C. Then, cells were treated with penetrating peptides as in (b) for 2 hrs and luciferase activity was quantified. Data shown are representative of three independent experiments done with biological duplicates, with mean + standard deviation (*P-value < 0.05 compared to untreated; ^‡P-value < 0.05 compared to its respective BL20 control).
The TpMD409.B2 cell line is a T. parva Muguga-infected B-cell clone (B2) whose establishment, phenotypic characteristics and culture conditions have been described[25]–[27]. BL20 cells are a retrovirus-transformed B cell line isolated from an infected cow. To eliminate the parasite, cells were treated for the indicated time with buparvaquone (50 ng/ml, 1 mg/ml stock in ethanol; Sigma). To inhibit E2F activity, cells were treated for the indicated time with HLM006474 (10 μM in DMSO, Sigma), or DMSO (10μM; Sigma) as a control. The T. annulata-infected cell lines BL20 (B cell), as well as Ode (macrophage) cell lines are well described and characterized.
The amino acid sequence of RB-1 based on the parasite sequence ([…]) was synthesized. Cysteine in wild type RB1 was replaced by an Asparagine (N; in bold […]). The penetrating peptide to facilitate cell entry is underlined.

[3] = test system: E2F activity in T. annulata-infected macrophages; test: E2F-luc reporter assay, T. annulata-transformed macrophages (Ode); format: cell-based, bovine; details: 1 μM penetrating peptide, 2 hrs
Description: (§3) Since no system for genetic manipulation is available yet for intracellular Theileria, we instead incubated T. parva- and T. annulata-infected bovine leukocytes (transfected with a luciferase reporter regulated from an E2F promoter) with synthesized peptides containing the RB-binding LXCXE motif, or a mutated LXNXE negative control, linked to a cell-penetrating peptide. If the LXCXE-containing peptide can regulate E2F activity in a sequence-specific manner, we would expect it to increase E2F activity, and that this effect would be reduced or abrogated in the mutated LXNXE peptide-treated group.
(a) TpMD409B.2 cells were transfected with E2F-luc (WT = wild-type E2F binding construct), or mutated E2F-luc constructs (labeled ‘mutated’) together with a CMV-lacZ plasmid to normalize for transfection efficiency. Luciferase and β-galactosidase activities were measured 24 hrs after transfection. E2F-luc relative luciferase activity normalized to mE2F-luc. Shown is the average of 3 independent experiments with standard deviation. BL20 or TBL20 cells were treated with (b) 1μM of penetrating peptides ([…]-K(FITC)) containing the TpGcpE LXCXE motif, or an LXNXE control ([…]-K(FITC)) or (c) E2F inhibitor or DMSO control, and then counted by hemacytometer after the indicated timepoints. […] Then, cells were treated with penetrating peptides as in (b) for 2 hrs and luciferase activity was quantified. […]

[4] = test system: E2F activity in T. annulata-infected B cells; test: E2F-luc reporter assay, T. annulata-infected B cells (TBL20); format: cell-based, bovine
Description: as §3
(a) TpMD409B.2 cells were transfected with E2F-luc (WT = wild-type E2F binding construct), or mutated E2F-luc constructs (labeled ‘mutated’) together with a CMV-lacZ plasmid to normalize for transfection efficiency. Luciferase and β-galactosidase activities were measured 24 hrs after transfection. E2F-luc relative luciferase activity normalized to mE2F-luc. Shown is the average of 3 independent experiments with standard deviation. BL20 or TBL20 cells were treated with (b) 1μM of penetrating peptides ([…]-K(FITC)) containing the TpGcpE LXCXE motif, or an LXNXE control ([…]-K(FITC)) or (c) E2F inhibitor or DMSO control, and then counted by hemacytometer after the indicated timepoints. Shown is the average of 3 independent experiments with standard deviation. Then, either (d) virulent Ode T. annulata-transformed macrophages, or (e) BL20/TBL20 T. annulata-transformed cells were transfected with E2F-luc plasmid (or mutated E2F-luc as in (c)) and incubated for 24 hrs at 37 °C. Then, cells were treated with penetrating peptides as in (b) for 2 hrs and luciferase activity was quantified. […]
TpMD409.B2 cells were co-transfected with 20 μg (E2F-luc, mE2F-luc), or 10 μg (cyclin E-luc) reporter construct, 20 μg of expression vector and 5 μg of pCMV-lacZ, where indicated. Luciferase and β-galactosidase activities were measured 24 h after transfection according to previously published procedures. […]

RB-HDAC1 = RB-HDAC1 binding with penetrating peptides; format: cell-based; details: discussion statement

Q: Which “RB binding in words” value [1] does the source give for “E2F1: host E2F transcription factor, known RB pocket domain binder” here?
A: binding to the RB pocket domain

Q: What about the “competition with E2F-1 for RB pocket domain binding” value (RB pocket domain / E2F-1) of the same substance?
A: does not compete with full-length TpGcpE for binding to the RB pocket domain

Q: What does the source list for “VKKKKIKREIKIYIEEVFTPLVLKCKELK-K(FITC) [LXCXE peptide, penetrating peptide containing the TpGcpE LXCXE motif, used in cells]”?
A: cell viability (BL20/TBL20 cells): no effect on cell viability; proliferation (cell number) ([2]; T. annulata-infected B cells, 1 μM penetrating peptide, 24 h and 48 h, average of 3 independent experiments): induced a significant increase in proliferation; infected leukocyte proliferation ([2]; discussion statement): promote infected leukocyte proliferation; E2F reporter activity [3]: increased E2F activity; E2F reporter activity ([4]; T. annulata-infected B cells, E2F-luc, 1 μM penetrating peptide, 2 hrs): increased E2F activity; E2F-driven transcription ([4]; discussion statement, infected leukocytes): activate E2F-driven transcription; RB-HDAC1 binding (RB-HDAC1): block RB-HDAC1 binding
